Measured values taken from patent US10251395B2, “Substituted furano-/thienocycloalkylamino-2-pyrimidine derivatives and use thereof for controlling undesired plant growth” (Bayer CropScience Aktiengesellschaft, priority 2015, dated 2019).

Experiments:
[1] = tested on: Abutilon theophrasti; assay: Pre-emergence herbicidal effect; type: in vivo; details: scored visually after 3 weeks
In short: (§1)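 Scoring: visual, 3 weeks, % vs untreated (100% = died). Treatment: WP or EC in water, 0.2% wetting agent, sprayed on covering soil after sowing in sandy loam.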

[2] = tested on: Alopecurus myosuroides; assay: Pre-emergence herbicidal effect; type: in vivo; details: Dosage 320 g/ha, scored visually after 3 weeks
In short: as §1

[3] = tested on: Amaranthus retroflexus; assay: Pre-emergence herbicidal effect; type: in vivo; details: scored visually after 3 weeks
In short: as §1

[4] = tested on: Avena fatua; assay: Pre-emergence herbicidal effect; type: in vivo; details: Dosage 320 g/ha, scored visually after 3 weeks
In short: as §1

[5] = tested on: Cyperus esculentus; assay: Pre-emergence herbicidal effect; type: in vivo; details: Dosage 320 g/ha, scored visually after 3 weeks
In short: as §1

[6] = tested on: Echinochloa crus-galli; assay: Pre-emergence herbicidal effect; type: in vivo; details: scored visually after 3 weeks
In short: as §1

[7] = tested on: Ipomoea purpurea; assay: Pre-emergence herbicidal effect; type: in vivo; details: Dosage 320 g/ha, scored visually after 3 weeks
In short: as §1

[8] = tested on: Lolium multiflorum; assay: Pre-emergence herbicidal effect; type: in vivo; details: Dosage 320 g/ha, scored visually after 3 weeks
In short: as §1

[9] = tested on: Matricaria inodora; assay: Pre-emergence herbicidal effect; type: in vivo; details: scored visually after 3 weeks
In short: as §1

[10] = tested on: Polygonum convolvulus; assay: Pre-emergence herbicidal effect; type: in vivo; details: scored visually after 3 weeks
In short: as §1

[11] = tested on: Setaria viridis; assay: Pre-emergence herbicidal effect; type: in vivo; details: scored visually after 3 weeks
In short: as §1

[12] = tested on: Stellaria media; assay: Pre-emergence herbicidal effect; type: in vivo; details: scored visually after 3 weeks
In short: as §1

[13] = tested on: Veronica persica; assay: Pre-emergence herbicidal effect; type: in vivo; details: scored visually after 3 weeks
In short: as §1

[14] = tested on: Viola tricolor; assay: Pre-emergence herbicidal effect; type: in vivo; details: scored visually after 3 weeks
In short: as §1

[15] = tested on: Abutilon theophrasti; assay: Post-emergence herbicidal effect; type: in vivo; details: assessed visually after about 3 weeks vs untreated controls
In short: (§2)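 Seedlings at the one-leaf stage, about 2 to 3 weeks old, are sprayed on their foliage with compound suspended or emulsified in water containing 0.2% wetting agent. After roughly 3 weeks in the greenhouse, injury is estimated visually on a 0 to 100% scale.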

[16] = tested on: Amaranthus retroflexus; assay: Post-emergence herbicidal effect; type: in vivo; details: assessed visually after about 3 weeks vs untreated controls
In short: as §2

[17] = tested on: Ipomoea purpurea; assay: Post-emergence herbicidal effect; type: in vivo; details: assessed visually after about 3 weeks vs untreated controls
In short: as §2

[18] = tested on: Matricaria inodora; assay: Post-emergence herbicidal effect; type: in vivo; details: assessed visually after about 3 weeks vs untreated controls
In short: as §2

[19] = tested on: Polygonum convolvulus; assay: Post-emergence herbicidal effect; type: in vivo; details: assessed visually after about 3 weeks vs untreated controls
In short: as §2

[20] = tested on: Setaria viridis; assay: Post-emergence herbicidal effect; type: in vivo; details: 320 g/ha, assessed visually after about 3 weeks vs untreated controls
In short: as §2

[21] = tested on: Stellaria media; assay: Post-emergence herbicidal effect; type: in vivo; details: assessed visually after about 3 weeks vs untreated controls
In short: as §2

[22] = tested on: Veronica persica; assay: Post-emergence herbicidal effect; type: in vivo; details: assessed visually after about 3 weeks vs untreated controls
In short: as §2

[23] = tested on: Viola tricolor; assay: Post-emergence herbicidal effect; type: in vivo; details: assessed visually after about 3 weeks vs untreated controls
In short: as §2

[24] = logP (HCOOH); type: physicochemical; details: HCOOH
Text: Table 2 (physicochemical characterization of selected synthesis examples)

[25] = tested on: Alopecurus myosuroides; assay: Post-emergence herbicidal effect; type: in vivo; details: 320 g/ha, assessed visually after about 3 weeks vs untreated controls
In short: as §2

[26] = tested on: Avena fatua; assay: Post-emergence herbicidal effect; type: in vivo; details: 320 g/ha, assessed visually after about 3 weeks vs untreated controls
In short: as §2

[27] = tested on: Echinochloa crus-galli; assay: Post-emergence herbicidal effect; type: in vivo; details: assessed visually after about 3 weeks vs untreated controls
In short: as §2

[28] = tested on: Lolium multiflorum; assay: Post-emergence herbicidal effect; type: in vivo; details: assessed visually after about 3 weeks vs untreated controls
In short: as §2

## CS(=O)(=O)c1cnc(N[C@@H]2CCCc3sccc32)nc1N [compound 24]
[1]; Dosage 320 g/ha
  ABUTH pre-emergence efficacy (herbicidal activity): 100%
[2]
  ALOMY pre-emergence efficacy (herbicidal activity): 100%
[3]; Dosage 80 g/ha
  AMARE pre-emergence efficacy (herbicidal activity): 100%
[3]; Dosage 320 g/ha
  AMARE pre-emergence efficacy (herbicidal activity): 100%
[4]
  AVEFA pre-emergence efficacy (herbicidal activity): 90%
[5]
  CYPES pre-emergence efficacy (herbicidal activity): 60%
[6]; Dosage 80 g/ha
  ECHCG pre-emergence efficacy (herbicidal activity): 100%
[6]; Dosage 320 g/ha
  ECHCG pre-emergence efficacy (herbicidal activity): 100%
[7]
  PHBPU pre-emergence efficacy (herbicidal activity): 100%
[8]
  LOLMU pre-emergence efficacy (herbicidal activity): 100%
[9]; Dosage 80 g/ha
  MATIN pre-emergence efficacy (herbicidal activity): 100%
[9]; Dosage 320 g/ha
  MATIN pre-emergence efficacy (herbicidal activity): 100%
[10]; Dosage 80 g/ha
  POLCO pre-emergence efficacy (herbicidal activity): 100%
[10]; Dosage 320 g/ha
  POLCO pre-emergence efficacy (herbicidal activity): 100%
[11]; Dosage 80 g/ha
  SETVI pre-emergence efficacy (herbicidal activity): 90%
[11]; Dosage 320 g/ha
  SETVI pre-emergence efficacy (herbicidal activity): 100%
[12]; Dosage 80 g/ha
  STEME pre-emergence efficacy (herbicidal activity): 100%
[12]; Dosage 320 g/ha
  STEME pre-emergence efficacy (herbicidal activity): 100%
[13]; Dosage 80 g/ha
  VERPE pre-emergence efficacy (herbicidal activity): 100%
[13]; Dosage 320 g/ha
  VERPE pre-emergence efficacy (herbicidal activity): 100%
[14]; Dosage 80 g/ha
  VIOTR pre-emergence efficacy (herbicidal activity): 100%
[14]; Dosage 320 g/ha
  VIOTR pre-emergence efficacy (herbicidal activity): 100%
[15]; 80 g/ha
  post-emergence efficacy ABUTH: 100%
[15]; 320 g/ha
  post-emergence efficacy ABUTH: 100%
[16]; 80 g/ha
  post-emergence efficacy AMARE: 90%
[16]; 320 g/ha
  post-emergence efficacy AMARE: 90%
[17]; 80 g/ha
  post-emergence efficacy PHBPU: 80%
[17]; 320 g/ha
  post-emergence efficacy PHBPU: 100%
[18]; 80 g/ha
  post-emergence efficacy MATIN: 80%
[18]; 320 g/ha
  post-emergence efficacy MATIN: 100%
[19]; 320 g/ha
  post-emergence efficacy POLCO: 80%
[20]
  post-emergence efficacy SETVI: 80%
[21]; 80 g/ha
  post-emergence efficacy STEME: 80%
[21]; 320 g/ha
  post-emergence efficacy STEME: 100%
[22]; 80 g/ha
  post-emergence efficacy VERPE: 90%
[22]; 320 g/ha
  post-emergence efficacy VERPE: 100%
[23]; 80 g/ha
  post-emergence efficacy VIOTR: 90%
[23]; 320 g/ha
  post-emergence efficacy VIOTR: 100%
[24]
  logP (HCOOH): solid; logP (HCOOH): 1.82; 1H NMR (CDCl3, 400 MHZ, δ in ppm): 1.85 (m, 3H, 3H

## Cc1cc2c(s1)CC(C)C2Nc1ncc(S(C)(=O)=O)c(N)n1 (racemic) [compound 17]
[1]; Dosage 80 g/ha
  ABUTH pre-emergence efficacy (herbicidal activity): 80%
[1]; Dosage 320 g/ha
  ABUTH pre-emergence efficacy (herbicidal activity): 100%
[2]
  ALOMY pre-emergence efficacy (herbicidal activity): 100%
[3]; Dosage 80 g/ha
  AMARE pre-emergence efficacy (herbicidal activity): 100%
[3]; Dosage 320 g/ha
  AMARE pre-emergence efficacy (herbicidal activity): 100%
[6]; Dosage 80 g/ha
  ECHCG pre-emergence efficacy (herbicidal activity): 100%
[6]; Dosage 320 g/ha
  ECHCG pre-emergence efficacy (herbicidal activity): 100%
[9]; Dosage 80 g/ha
  MATIN pre-emergence efficacy (herbicidal activity): 100%
[9]; Dosage 320 g/ha
  MATIN pre-emergence efficacy (herbicidal activity): 100%
[10]; Dosage 320 g/ha
  POLCO pre-emergence efficacy (herbicidal activity): 100%
[11]; Dosage 80 g/ha
  SETVI pre-emergence efficacy (herbicidal activity): 60%
[11]; Dosage 320 g/ha
  SETVI pre-emergence efficacy (herbicidal activity): 100%
[12]; Dosage 80 g/ha
  STEME pre-emergence efficacy (herbicidal activity): 100%
[12]; Dosage 320 g/ha
  STEME pre-emergence efficacy (herbicidal activity): 100%
[13]; Dosage 80 g/ha
  VERPE pre-emergence efficacy (herbicidal activity): 100%
[13]; Dosage 320 g/ha
  VERPE pre-emergence efficacy (herbicidal activity): 100%
[14]; Dosage 80 g/ha
  VIOTR pre-emergence efficacy (herbicidal activity): 100%
[14]; Dosage 320 g/ha
  VIOTR pre-emergence efficacy (herbicidal activity): 100%
[15]; 320 g/ha
  post-emergence efficacy ABUTH: 100%
[25]
  post-emergence efficacy ALOMY: 90%
[16]; 320 g/ha
  post-emergence efficacy AMARE: 100%
[26]
  post-emergence efficacy AVEFA: 100%
[27]; 80 g/ha
  post-emergence efficacy ECHCG: 80%
[27]; 320 g/ha
  post-emergence efficacy ECHCG: 100%
[17]; 320 g/ha
  post-emergence efficacy PHBPU: 0%
[28]; 80 g/ha
  post-emergence efficacy LOLMU: 90%
[28]; 320 g/ha
  post-emergence efficacy LOLMU: 100%
[18]; 320 g/ha
  post-emergence efficacy MATIN: 80%
[19]; 80 g/ha
  post-emergence efficacy POLCO: 80%
[19]; 320 g/ha
  post-emergence efficacy POLCO: 80%
[20]
  post-emergence efficacy SETVI: 100%
[21]; 320 g/ha
  post-emergence efficacy STEME: 100%
[22]; 320 g/ha
  post-emergence efficacy VERPE: 100%
[23]; 320 g/ha
  post-emergence efficacy VIOTR: 90%
[24]
  logP (HCOOH): oily; logP (HCOOH): 2.11; 1H NMR (CDCl3, 400 MHZ, δ in ppm): 1.30 (d, 3H, 3H of
